Measurements as given in PubChem BioAssay (NCI).
Several values for one entry are separate records, joined by “and”; a condition that tells them apart may be missing. Equal entries are not always repeated.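 Assay format: 96-well plates, 48-hour exposure. GI50 = concentration required for 50% inhibition of growth. TGI denotes the concentration required for complete inhibition of growth.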

Assays:
Experiment in all cases: inhibition of tumour cell growth, NCI panel, 48 h
ACHN renal = test system: ACHN renal
CAKI-1 renal = test system: CAKI-1 renal
K-562 leukemia = test system: K-562 leukemia
PC-3 prostate = test system: PC-3 prostate
RPMI-8226 leukemia = test system: RPMI-8226 leukemia
RXF 393 renal = test system: RXF 393 renal
SF-268 CNS = test system: SF-268 CNS
SF-295 CNS = test system: SF-295 CNS
SK-MEL-2 melanoma = test system: SK-MEL-2 melanoma
SN12C renal = test system: SN12C renal

SMILES | GI50 (ACHN renal) [µM] | TGI (ACHN renal) [µM] | GI50 (CAKI-1 renal) [µM] | TGI (CAKI-1 renal) [µM] | GI50 (K-562 leukemia) [µM] | TGI (K-562 leukemia) [µM] | GI50 (PC-3 prostate) [µM] | TGI (PC-3 prostate) [µM] | GI50 (RPMI-8226 leukemia) [µM] | TGI (RPMI-8226 leukemia) [µM] | GI50 (RXF 393 renal) | TGI (RXF 393 renal) | GI50 (SF-268 CNS) [µM] | TGI (SF-268 CNS) [µM] | GI50 (SF-295 CNS) [µM] | TGI (SF-295 CNS) [µM] | GI50 (SK-MEL-2 melanoma) | TGI (SK-MEL-2 melanoma) [µM] | GI50 (SN12C renal) [µM] | TGI (SN12C renal) [µM]
COC(=O)c1cc2oc(/C=C3/SC(=S)N(NC(C)=O)C3=O)cc2n1C | 15.8 | 43.5 | 10 | 36.9 | 24.7 | > 100 | 25.6 | 68.4 | 24 | > 100 | 36.5 µM | 87.7 µM | 28.4 | > 100 | 18.2 | 65.5 | 23.9 µM | > 100 | 21.9 | 60.5
C=C(C)C12OC1[C@@]1(C)C(=CC2=O)CCC(O)[C@@H]1C (some centres undefined) |  | 2.42 |  | 3 |  |  |  | 27.8 |  | 24 |  |  |  | 14.7 |  | > 100 |  | 20.1 |  | 11.5
N#CCCC[Si]12OCCN(CCO1)CCO2 |  | > 100 |  | > 100 |  | > 100 |  |  |  | > 100 |  | > 100 µM |  | > 100 |  | > 100 |  | > 100 |  | > 100
CN1C(=O)C(=O)N2c3ccc(Cl)cc3C3(c4ccccc4)N=CC12O3 (centres undefined) |  | 17.7 |  | 42.7 |  | 19.9 |  |  |  | 6.87 |  | 6.34 µM |  | 25.6 |  | 23.2 |  | 30.5 |  | 13.7
Cc1[cH-]c(=O)n(-c2ccccc2)n1.[Au+].[Au].c1ccc([PH+](c2ccccc2)c2ccccc2)cc1.c1ccc([PH+](c2ccccc2)c2ccccc2)cc1 | 22.3 | 58.6 |  |  | 34.7 | > 100 |  |  | 99.4 | > 100 | 0.756 µM and 6.89 µM | 3.32 µM and 28.5 µM | 7.14 | 31.9 | 15.1 | 35.2 | 4.64 µM and 8.64 µM | 23.5 | 37.5 | > 100
COc1cc(-c2nc3sccn3c2-c2ccnc(NCCNS(=O)(=O)c3ccc(F)cc3)n2)ccc1F | 1.53 | > 100 | 2.53 | > 100 | 1.53 | > 100 | 0.946 | > 100 |  |  | 0.75 µM | 8.2 µM | 2.78 | > 100 | 2.87 | > 100 | 2.24 µM | 7.27 | 1.89 | > 100
Cn1cc(-c2cc3c(N4CCN(c5ncc([C@@](C)(N)c6ccc(F)cc6)cn5)CC4)ncnn3c2)cn1 | 3.26 | > 100 | 2.63 | > 100 | 2.49 | > 100 | 1.99 | > 100 |  |  | 2.66 µM | > 100 µM |  |  | 3.56 | > 100 | 25.4 µM | > 100 | 5.46 | > 100
CCOC(=O)C1Sc2ccccc2N=C1C (centres undefined) |  | > 100 |  |  |  | > 100 |  |  |  | > 100 |  | > 100 µM |  | > 100 |  | > 100 |  | > 100 |  | > 100
[O-][Cl+3]([O-])([O-])[O-].[O]=[Ru]=[O].c1ccc(-c2ccccn2)nc1.c1ccc(-c2ccccn2)nc1 | > 100 | > 100 | > 100 | > 100 | > 100 | > 100 |  |  | 29.7 | > 100 | 39.1 µM | > 100 µM | 65.7 | > 100 | 60.2 | > 100 | > 100 µM | > 100 | 50.9 | > 100
Clc1ccc2cccc3c2c1C1OC3c2ccccc21 (centres undefined) |  | > 100 |  |  |  | > 100 |  |  |  | > 100 |  | > 100 µM |  | > 100 |  | > 100 |  | > 100 |  | > 100
Cc1nnc2ccnn2c1C | > 100 | > 100 | > 100 | > 100 | > 100 | > 100 | > 100 | > 100 | > 100 | > 100 |  |  | > 100 | > 100 | > 100 | > 100 | > 100 µM | > 100 | > 100 | > 100
CC(C)(C)[Si](C)(C)OC1[C@@H](O[Si](C)(C)C(C)(C)C)[C@@H](CNC(=O)NC(=O)C(F)(F)F)O[C@H]1n1cnc2c(NC(=O)Nc3ccccc3)ncnc21 (some centres undefined) | 5.54 | 11.5 | 8.24 | 17 | 8.16 | 24.7 | 1.82 | 7.91 | 7.11 | 28.6 | 1.3 µM | 4.25 µM | 6.22 | 13.4 |  |  | 9.37 µM | 17.3 | 1.96 | 8.22
Cc1ccc(NC2=C3CCCCC3OC2=O)cc1 (centres undefined) | > 100 | > 100 | 49.5 | > 100 | 45.1 | > 100 | 49.7 | > 100 | 34.5 | > 100 | > 100 µM | > 100 µM | > 100 | > 100 | 75 | > 100 |  |  | 93 | > 100
CCC(C)SC1SCC2C(=O)N(C)C3(CC3C)C(=O)OCC(NC(=O)c3nc4ccccc4cc3O)C(=O)NC(C)C(=O)N(C)C1C(=O)N(C)C1(CC1C)C(=O)OCC(NC(=O)c1nc3ccccc3cc1O)C(=O)NC(C)C(=O)N2C (centres undefined) | 0.000296 | 0.221 | 8.7e-05 |  |  |  |  | 0.0049 |  | 0.00233 |  | 0.000154 µM |  | 0.00516 |  | 0.00153 |  | 0.000304 |  | 9.55
O=C1C(C(Nc2ccccc2)c2ccccc2)=C([O-])c2ccccc21.O=C1C(C(Nc2ccccc2)c2ccccc2)=C([O-])c2ccccc21.[Cu+2] (centres undefined) | 86.2 | > 100 | > 100 | > 100 | 28.6 | > 100 |  |  | 24.8 | > 100 |  |  |  |  | 48.2 | > 100 |  |  | 41.5 | > 100
CN(C)CC(O)c1ccc(/C=C/c2ccc(Cl)cc2)cc1 (centres undefined) | 1.63 | 3.01 | 0.706 | 2.05 | 1.14 | 3.55 | 1.42 | 3.09 | 5.34 | 22.4 | 3.89 µM | 16.2 µM | 1.49 | 2.88 | 1.53 | 3 |  |  | 10.4 | 22.9
